Measurements reported in ChEMBL document CHEMBL4334508, “Oleanolic Acid Derivatives as Potential Inhibitors of HIV-1 Protease” (J Nat Prod, 2019).

Target: Protease (Human immunodeficiency virus 1, UniProt Q9YQ12)
Assay: Inhibition of HIV1 protease expressed in Escherichia coli using Abz-Ala-Arg-Val-Nle-Tyr(NO2)-Glu-Ala-Nle-NH2 peptide as substrate by FRET assay

Protease, sequence (Q9YQ12 whole entry): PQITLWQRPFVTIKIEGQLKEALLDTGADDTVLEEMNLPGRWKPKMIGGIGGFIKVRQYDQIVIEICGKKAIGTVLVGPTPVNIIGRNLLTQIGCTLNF

Row | IC50 | Compound
1 | > 50 µM | C[C@H](NC(=O)CCCCCCCCCCNC(=O)[C@]12CCC(C)(C)C[C@H]1C1=CC[C@@H]3[C@@]4(C)CC[C@H](OC(=O)CCC(=O)O)C(C)(C)[C@@H]4CC[C@@]3(C)[C@]1(C)CC2)C(=O)O
2 | > 50 µM | CCC(=O)O[C@H]1CC[C@]2(C)[C@H]3CC=C4[C@@H]5CC(C)(C)CC[C@]5(C(=O)NCCCC(=O)NCC(=O)O)CC[C@@]4(C)[C@]3(C)CC[C@H]2C1(C)C
3 | > 50 µM | CCCCCC(=O)O[C@H]1CC[C@]2(C)[C@H]3CC=C4[C@@H]5CC(C)(C)CC[C@]5(C(=O)NCCCCCCCCCCC(=O)O)CC[C@@]4(C)[C@]3(C)CC[C@H]2C1(C)C
4 | 38.8 µM | C[C@H](NC(=O)CCCCCNC(=O)[C@]12CCC(C)(C)C[C@H]1C1=CC[C@@H]3[C@@]4(C)CC[C@H](OC(=O)CCCC(=O)O)C(C)(C)[C@@H]4CC[C@@]3(C)[C@]1(C)CC2)C(=O)O
5 | > 50 µM | CCCCCCCCCCCC(=O)O[C@H]1CC[C@]2(C)[C@H]3CC=C4[C@@H]5CC(C)(C)CC[C@]5(C(=O)NCCCCCCCCCCC(=O)N[C@H](C(=O)O)C(C)C)CC[C@@]4(C)[C@]3(C)CC[C@H]2C1(C)C
6 | > 50 µM | CCCC(=O)O[C@H]1CC[C@]2(C)[C@H]3CC=C4[C@@H]5CC(C)(C)CC[C@]5(C(=O)NCCCCCCCCCCC(=O)O)CC[C@@]4(C)[C@]3(C)CC[C@H]2C1(C)C
7 | > 50 µM | CCCC(=O)O[C@H]1CC[C@]2(C)[C@H]3CC=C4[C@@H]5CC(C)(C)CC[C@]5(C(=O)NCCCCCC(=O)O)CC[C@@]4(C)[C@]3(C)CC[C@H]2C1(C)C
8 | > 50 µM | CCCCCC(=O)O[C@H]1CC[C@]2(C)[C@H]3CC=C4[C@@H]5CC(C)(C)CC[C@]5(C(=O)NCCCC(=O)NCC(=O)O)CC[C@@]4(C)[C@]3(C)CC[C@H]2C1(C)C
9 | > 50 µM | CC(=O)O[C@H]1CC[C@]2(C)[C@H]3CC=C4[C@@H]5CC(C)(C)CC[C@]5(C(=O)NCCCC(=O)N[C@@H](C)C(=O)O)CC[C@@]4(C)[C@]3(C)CC[C@H]2C1(C)C
10 | > 50 µM | CC(C)(CC(=O)O)CC(=O)O[C@H]1CC[C@]2(C)[C@H]3CC=C4[C@@H]5CC(C)(C)CC[C@]5(C(=O)NCCCCCCCCCCC(=O)O)CC[C@@]4(C)[C@]3(C)CC[C@H]2C1(C)C
11 | > 50 µM | CCCCCCCCCCCC(=O)O[C@H]1CC[C@]2(C)[C@H]3CC=C4[C@@H]5CC(C)(C)CC[C@]5(C(=O)NCCCCCCCCCCC(=O)NCC(=O)O)CC[C@@]4(C)[C@]3(C)CC[C@H]2C1(C)C
12 | > 50 µM | CC(=O)O[C@H]1CC[C@]2(C)[C@H]3CC=C4[C@@H]5CC(C)(C)CC[C@]5(C(=O)NCCCCCC(=O)NCC(=O)O)CC[C@@]4(C)[C@]3(C)CC[C@H]2C1(C)C
13 | 2.3 µM | CC1(C)CC[C@]2(C(=O)NCCCCCCCCCCC(=O)NCC(=O)O)CC[C@]3(C)C(=CC[C@@H]4[C@@]5(C)CC[C@H](OC(=O)c6ccccc6C(=O)O)C(C)(C)[C@@H]5CC[C@]43C)[C@@H]2C1
14 | 1.2 µM | CC(C)[C@H](NC(=O)CCCCCCCCCCNC(=O)[C@]12CCC(C)(C)C[C@H]1C1=CC[C@@H]3[C@@]4(C)CC[C@H](OC(=O)c5ccccc5C(=O)O)C(C)(C)[C@@H]4CC[C@@]3(C)[C@]1(C)CC2)C(=O)O
15 | > 50 µM | CCCC(=O)O[C@H]1CC[C@]2(C)[C@H]3CC=C4[C@@H]5CC(C)(C)CC[C@]5(C(=O)NCCCCCC(=O)N[C@H](C(=O)O)C(C)C)CC[C@@]4(C)[C@]3(C)CC[C@H]2C1(C)C
16 | > 50 µM | CC1(C)CC[C@]2(C(=O)NCCCC(=O)NCC(=O)O)CC[C@]3(C)C(=CC[C@@H]4[C@@]5(C)CC[C@H](OC(=O)c6ccccc6)C(C)(C)[C@@H]5CC[C@]43C)[C@@H]2C1
17 | > 50 µM | CC1(C)CC[C@]2(C(=O)NCCCCCCCCCCC(=O)O)CC[C@]3(C)C(=CC[C@@H]4[C@@]5(C)CC[C@H](OC(=O)c6ccccc6)C(C)(C)[C@@H]5CC[C@]43C)[C@@H]2C1

Row | IC50 | Compound
18 | > 50 µM | CCCCCC(=O)O[C@H]1CC[C@]2(C)[C@H]3CC=C4[C@@H]5CC(C)(C)CC[C@]5(C(=O)NCCCCCCCCCCC(=O)NCC(=O)O)CC[C@@]4(C)[C@]3(C)CC[C@H]2C1(C)C
19 | > 50 µM | CCCCCC(=O)O[C@H]1CC[C@]2(C)[C@H]3CC=C4[C@@H]5CC(C)(C)CC[C@]5(C(=O)NCCCC(=O)N[C@@H](C)C(=O)O)CC[C@@]4(C)[C@]3(C)CC[C@H]2C1(C)C
20 | 31 µM | CCC(=O)O[C@H]1CC[C@]2(C)[C@H]3CC=C4[C@@H]5CC(C)(C)CC[C@]5(C(=O)NCCCCCC(=O)N[C@@H](C)C(=O)O)CC[C@@]4(C)[C@]3(C)CC[C@H]2C1(C)C
21 | 17.9 µM | CC(C)[C@H](NC(=O)CCCCCNC(=O)[C@]12CCC(C)(C)C[C@H]1C1=CC[C@@H]3[C@@]4(C)CC[C@H](OC(=O)CCCC(=O)O)C(C)(C)[C@@H]4CC[C@@]3(C)[C@]1(C)CC2)C(=O)O
22 | > 50 µM | CC(=O)O[C@H]1CC[C@]2(C)[C@H]3CC=C4[C@@H]5CC(C)(C)CC[C@]5(C(=O)NCCCCCCCCCCC(=O)N[C@H](C(=O)O)C(C)C)CC[C@@]4(C)[C@]3(C)CC[C@H]2C1(C)C
23 | > 50 µM | CCC(=O)O[C@H]1CC[C@]2(C)[C@H]3CC=C4[C@@H]5CC(C)(C)CC[C@]5(C(=O)NCCCCCC(=O)N[C@H](C(=O)O)C(C)C)CC[C@@]4(C)[C@]3(C)CC[C@H]2C1(C)C
24 | > 50 µM | CCC(=O)O[C@H]1CC[C@]2(C)[C@H]3CC=C4[C@@H]5CC(C)(C)CC[C@]5(C(=O)NCCCCCC(=O)NCC(=O)O)CC[C@@]4(C)[C@]3(C)CC[C@H]2C1(C)C
25 | > 50 µM | CCC(=O)O[C@H]1CC[C@]2(C)[C@H]3CC=C4[C@@H]5CC(C)(C)CC[C@]5(C(=O)NCCCCCCCCCCC(=O)NCC(=O)O)CC[C@@]4(C)[C@]3(C)CC[C@H]2C1(C)C
26 | > 50 µM | CCCC(=O)O[C@H]1CC[C@]2(C)[C@H]3CC=C4[C@@H]5CC(C)(C)CC[C@]5(C(=O)NCCCC(=O)N[C@H](C(=O)O)C(C)C)CC[C@@]4(C)[C@]3(C)CC[C@H]2C1(C)C
27 | > 50 µM | CC1(C)CC[C@]2(C(=O)NCCCC(=O)NCC(=O)O)CC[C@]3(C)C(=CC[C@@H]4[C@@]5(C)CC[C@H](OC(=O)CCCC(=O)O)C(C)(C)[C@@H]5CC[C@]43C)[C@@H]2C1
28 | > 50 µM | CCCCCCCCCCCC(=O)O[C@H]1CC[C@]2(C)[C@H]3CC=C4[C@@H]5CC(C)(C)CC[C@]5(C(=O)NCCCC(=O)N[C@@H](C)C(=O)O)CC[C@@]4(C)[C@]3(C)CC[C@H]2C1(C)C
29 | > 50 µM | CCCCCCCCCCCC(=O)O[C@H]1CC[C@]2(C)[C@H]3CC=C4[C@@H]5CC(C)(C)CC[C@]5(C(=O)NCCCCCC(=O)N[C@@H](C)C(=O)O)CC[C@@]4(C)[C@]3(C)CC[C@H]2C1(C)C
30 | 40.2 µM | C[C@H](NC(=O)CCCCCNC(=O)[C@]12CCC(C)(C)C[C@H]1C1=CC[C@@H]3[C@@]4(C)CC[C@H](OC(=O)CCC(=O)O)C(C)(C)[C@@H]4CC[C@@]3(C)[C@]1(C)CC2)C(=O)O
31 | 20.4 µM | CC1(C)CC[C@]2(C(=O)NCCCC(=O)O)CC[C@]3(C)C(=CC[C@@H]4[C@@]5(C)CC[C@H](OC(=O)CCCC(=O)O)C(C)(C)[C@@H]5CC[C@]43C)[C@@H]2C1
32 | 9.6 µM | CC(C)[C@H](NC(=O)CCCCCNC(=O)[C@]12CCC(C)(C)C[C@H]1C1=CC[C@@H]3[C@@]4(C)CC[C@H](OC(=O)CCC(=O)O)C(C)(C)[C@@H]4CC[C@@]3(C)[C@]1(C)CC2)C(=O)O
33 | > 50 µM | CCCC(=O)O[C@H]1CC[C@]2(C)[C@H]3CC=C4[C@@H]5CC(C)(C)CC[C@]5(C(=O)NCCCCCCCCCCC(=O)N[C@@H](C)C(=O)O)CC[C@@]4(C)[C@]3(C)CC[C@H]2C1(C)C
